Where two headings read alike, the source gives them in different places.
Legend:
[1] = test system: ZIKV-mCherry (Cambodian strain FSS13025); experiment: microbe, parasite or virus in culture; format: cell-based, Zika virus
[2] = test system: caspase-3 activity induced by ZIKV in Vero cells; experiment: cells; format: cell-based; conditions: read-out: Caspase 3 (ZIKV Antiviral Assays), IC50
[3] = test system: wild-type ZIKV (Ugandan MR766 strain) in Vero cells; experiment: ZIKV cytopathic effect (CPE) inhibition qHTS assay, CellTiter-Glo readout; format: cell-based, Zika virus; conditions: for IC50: read-out: ZIKV-infection (CPE, ZIKV Antiviral Assays), IC50
[4] = test system: ZIKV-RLuc (Cambodian strain FSS13025); experiment: microbe, parasite or virus in culture; format: cell-based, Zika virus; conditions: read-out: Rluc-ZIKV (ZIKV Antiviral Assays), IC50
[5] = test system: DENV (Dengue virus type 2, strain New Guinea C)
[6] = test system: human neuronal progenitor cells (NPC)
[7] = test system: mCherry-ZIKV in human neuronal progenitor cells; experiment: microbe, parasite or virus in culture; format: cell-based, Zika virus
[8] = test system: Solute carrier organic anion transporter family member 1B1; conditions: cited from earlier work
in vitro [9] = conditions: African green monkey
[10] = molecular target: Tyrosine-protein phosphatase non-receptor type 1; conditions: cited from earlier work
in vitro [11] = conditions: human
[12] = test system: Transcription factor AP-1; conditions: cited from earlier work
[13] = Zika virus, Vero, read-out: Log AC50 (M) (converted)

5-methylcytidine [NCGC00484060-01, reference compound]
CC-v2 (curve class of the dose response curve) [1]: -1.2
Efficacy (difference between neutral response and maximum compound response) [1]: -45.337
Log AC50 (M) [1]: -5.0741 M
Max Resp (difference between neutral response and response at highest compound concentration) [1]: -100.16
AC50 ([1]; read-out: AC50): 8.43e-06 M
IC50 ([2]; ZIKV-infected Vero cells, 48 hr, unit inferred): > 48 µM
SI value YFV (CC50/EC50) (YFV (YFV 17D)): 3
Selectivity Index YFV (CC50/EC50) (YFV (YFV 17D)): 3
YFV active Yes/No (YFV (YFV 17D)): Yes
CC-v2 (curve class classification of the dose response curve) [3]: -1.2
Efficacy [3]: -42.621
Log AC50 (M) [3]: -4.8362 M
Max Resp [3]: -39.681
AC50 ([3]; read-out: AC50): 1.46e-05 M
IC50 [3]: 14.6 µM
IC50 [4]: 18.5 µM
CC50 (HepG2 cells): > 30 µM
DENV active Yes/No [5]: No
SI value WHV (CC50/EC50) (WNV (Kern515/WN02)): 1.8
Selectivity Index WHV (CC50/EC50) (WNV (Kern515/WN02)): 2
WHV active Yes/No (WNV (Kern515/WN02)): No
CC50 (Vero cells): > 50 µM
CC50 [6]: 19.2 µM
SI value ZIKV (CC50/EC50) (ZIKV): 28
Selectivity Index ZIKV (CC50/EC50) (ZIKV): 28
ZIKV active Yes/No (ZIKV): Yes
CC-v2 (curve class) [7]: -2.2
Efficacy [7]: -64.821
Log AC50 (M) [7]: -4.4 M
Max Resp [7]: -51.196
AC50 ([7]; read-out: AC50): 39.8 µM
IC50 ([7]; read-out: NPC (ZIKV Antiviral Assays), IC50): 39.8 µM

CC1OC(OC2C(OC(=O)[C@]34CCC(C)(C)C[C@H]3C3=CCC5[C@@]6(C)CC[C@H](OC7OC(C(=O)O)C(O)C(O)C7O)C(C)(C)C6CC[C@@]5(C)[C@]3(C)CC4O)OC(CO)C2O)C(O)C(O)C1OC1OCC(O)C(O)C1O (some centres unmarked) [NCGC00381102-01]
CC-v2 (curve class of the dose response curve) [1]: -1.4
Efficacy (difference between neutral response and maximum compound response) [1]: -69.614
Max Resp (difference between neutral response and response at highest compound concentration) [1]: -99.592
-Log(IC50) M, Solute carrier organic anion transporter family member 1B1 [8]: Solute carrier organic anion transporter family member 1B1 -Log(IC50) M~5.40~-Log(IC50) M~0.8333~Target
IC50 ([2]; Zika virus, Vero, 48 h): > 48 µM
CC-v2 (curve class classification of the dose response curve) [3]: -3
Efficacy [3]: -33.279
AC50 ([3]; Zika virus, Vero): 1.55e-05 M
IC50 ([3]; Zika virus, Vero, 48 h): 15.5 µM
AC50 [3, 13]: 1.55e-05 M
IC50 ([4]; Zika virus, Vero, 48 h): 6.19 µM
CC50 at 48 h (in vitro [9]; Vero cells): > 50 µM

CC1(C)CC[C@]2(C(=O)O)CC[C@]3(C)C(=CC[C@@H]4[C@@]5(C)CC[C@H](O[C@@H]6O[C@H](C(=O)O)[C@@H](O)[C@H](O)[C@H]6O)C(C)(C)[C@@H]5CC[C@]43C)[C@@H]2C1 [NCGC00384528-01, Calenduloside E]
CC-v2 (curve class of the dose response curve) [1]: -1.2
Efficacy (difference between neutral response and maximum compound response) [1]: -57.341
Max Resp (difference between neutral response and response at highest compound concentration) [1]: -100.305
AC50 ([1]; Zika virus, Vero): 4.99e-06 M
AC50 [1, 13]: 4.99e-06 M
IC50 ([2]; Zika virus, Vero, 48 h): 0.001 µM
Efficacy [3]: -27.436
AC50 ([3]; Zika virus, Vero): 1.37e-05 M
IC50 ([3]; Zika virus, Vero, 48 h): 13.7 µM
AC50 [3, 13]: 1.37e-05 M
IC50 ([4]; Zika virus, Vero, 48 h): 11 µM
-Log(IC50) M, Tyrosine-protein phosphatase non-receptor type 1 [10]: Tyrosine-protein phosphatase non-receptor type 1 -Log(IC50) M~5.46~-Log(IC50) M~0.7284~Target
CC50 at 48 h (in vitro [9]; Vero cells): > 50 µM
CC50 (in vitro [11]): > 30 µM

CC1(C)CC[C@]2(C(=O)O)CC[C@]3(C)C(=CCC4[C@@]5(C)CC[C@H](O[C@H]6O[C@H](C(=O)O)[C@@H](O)[C@H](O[C@@H]7O[C@H](CO)[C@H](O)[C@H](O)[C@H]7O)[C@H]6O)C(C)(C)C5CC[C@]43C)[C@@H]2C1 (some centres unmarked) [NCGC00385211-01, Calenduloside G]
CC-v2 (curve class of the dose response curve) [1]: -1.3
Efficacy (difference between neutral response and maximum compound response) [1]: -66.223
Max Resp (difference between neutral response and response at highest compound concentration) [1]: -100.305
AC50 ([1]; Zika virus, Vero): 3.19e-06 M
AC50 [1, 13]: 3.19e-06 M
IC50 ([2]; Zika virus, Vero, 48 h): 1.39 µM
Efficacy [3]: -58.411
AC50 ([3]; Zika virus, Vero): 1.23e-05 M
IC50 ([3]; Zika virus, Vero, 48 h): 12.3 µM
AC50 [3, 13]: 1.23e-05 M
IC50 ([4]; Zika virus, Vero, 48 h): 2.2 µM
CC50 at 48 h (in vitro [9]): > 50 µM
-Log(IC50) M, Transcription factor AP-1 [12]: Transcription factor AP-1 -Log(IC50) M~4.74~-Log(IC50) M~0.8101~Target
